According to ChEMBL document CHEMBL5465560, “Selectivity Literature for EUbOPEN Chemogenomic Library” (2024):

Key:
[1] = target: Calcium/calmodulin-dependent protein kinase type II subunit alpha (Homo sapiens, UniProt Q9UQM7); assay: Selectivity interaction (KinomeScan (DiscoverX)) EUB0000618a CAMK2A; conditions: at 10 µM
[2] = target: T1, Serine/threonine-protein kinase 36 (Homo sapiens) (UniProt Q9NRP7); assay: Selectivity interaction (KinomeScan (DiscoverX)) EUB0000618a STK36; conditions: at 10 µM
T1 sequence (whole entry): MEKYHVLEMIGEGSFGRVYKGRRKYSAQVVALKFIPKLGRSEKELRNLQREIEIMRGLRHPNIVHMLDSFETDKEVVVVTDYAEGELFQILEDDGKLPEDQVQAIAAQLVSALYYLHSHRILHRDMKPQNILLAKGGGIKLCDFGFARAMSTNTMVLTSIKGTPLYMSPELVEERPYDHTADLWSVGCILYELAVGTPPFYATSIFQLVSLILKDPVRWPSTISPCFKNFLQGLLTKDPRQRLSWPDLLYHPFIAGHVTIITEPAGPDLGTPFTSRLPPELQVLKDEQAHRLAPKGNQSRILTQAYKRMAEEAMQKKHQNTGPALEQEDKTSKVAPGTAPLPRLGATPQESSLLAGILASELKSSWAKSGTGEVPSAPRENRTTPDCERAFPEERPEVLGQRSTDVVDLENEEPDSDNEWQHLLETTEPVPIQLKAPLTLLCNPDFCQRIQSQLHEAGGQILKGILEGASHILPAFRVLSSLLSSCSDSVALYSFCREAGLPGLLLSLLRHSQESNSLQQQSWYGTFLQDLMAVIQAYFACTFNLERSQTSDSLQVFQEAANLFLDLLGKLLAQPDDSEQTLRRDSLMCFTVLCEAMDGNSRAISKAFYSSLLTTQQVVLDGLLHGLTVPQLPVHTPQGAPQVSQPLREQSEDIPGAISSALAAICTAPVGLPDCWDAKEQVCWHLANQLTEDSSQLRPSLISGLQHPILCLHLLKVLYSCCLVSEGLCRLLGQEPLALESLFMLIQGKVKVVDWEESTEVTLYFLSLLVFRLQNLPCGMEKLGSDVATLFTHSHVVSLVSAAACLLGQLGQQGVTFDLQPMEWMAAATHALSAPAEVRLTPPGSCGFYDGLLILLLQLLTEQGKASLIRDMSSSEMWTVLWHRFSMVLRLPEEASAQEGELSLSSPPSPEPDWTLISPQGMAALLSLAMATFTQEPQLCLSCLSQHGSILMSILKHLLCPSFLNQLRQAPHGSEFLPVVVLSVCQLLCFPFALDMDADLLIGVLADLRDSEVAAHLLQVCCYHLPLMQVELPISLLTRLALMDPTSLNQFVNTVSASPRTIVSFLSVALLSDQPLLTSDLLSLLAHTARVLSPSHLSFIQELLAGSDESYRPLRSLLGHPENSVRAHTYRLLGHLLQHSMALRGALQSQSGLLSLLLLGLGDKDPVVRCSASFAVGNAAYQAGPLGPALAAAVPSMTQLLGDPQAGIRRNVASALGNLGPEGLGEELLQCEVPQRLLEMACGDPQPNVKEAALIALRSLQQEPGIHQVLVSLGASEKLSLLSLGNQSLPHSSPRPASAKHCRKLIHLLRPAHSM

[3] = target: Homeodomain-interacting protein kinase 1 (Homo sapiens, UniProt Q86Z02); assay: Selectivity interaction (KinomeScan (DiscoverX)) EUB0000595a HIPK1; conditions: at 10 µM
[4] = target: T2, Serine/threonine-protein kinase Nek1 (Homo sapiens) (UniProt Q96PY6); assay: Selectivity interaction (Kinase panel (KiNativ target engagement assay in Jurkat cells)) EUB0001635a NEK1; assay type: cell-based; conditions: at 1 µM
T2 sequence (whole entry): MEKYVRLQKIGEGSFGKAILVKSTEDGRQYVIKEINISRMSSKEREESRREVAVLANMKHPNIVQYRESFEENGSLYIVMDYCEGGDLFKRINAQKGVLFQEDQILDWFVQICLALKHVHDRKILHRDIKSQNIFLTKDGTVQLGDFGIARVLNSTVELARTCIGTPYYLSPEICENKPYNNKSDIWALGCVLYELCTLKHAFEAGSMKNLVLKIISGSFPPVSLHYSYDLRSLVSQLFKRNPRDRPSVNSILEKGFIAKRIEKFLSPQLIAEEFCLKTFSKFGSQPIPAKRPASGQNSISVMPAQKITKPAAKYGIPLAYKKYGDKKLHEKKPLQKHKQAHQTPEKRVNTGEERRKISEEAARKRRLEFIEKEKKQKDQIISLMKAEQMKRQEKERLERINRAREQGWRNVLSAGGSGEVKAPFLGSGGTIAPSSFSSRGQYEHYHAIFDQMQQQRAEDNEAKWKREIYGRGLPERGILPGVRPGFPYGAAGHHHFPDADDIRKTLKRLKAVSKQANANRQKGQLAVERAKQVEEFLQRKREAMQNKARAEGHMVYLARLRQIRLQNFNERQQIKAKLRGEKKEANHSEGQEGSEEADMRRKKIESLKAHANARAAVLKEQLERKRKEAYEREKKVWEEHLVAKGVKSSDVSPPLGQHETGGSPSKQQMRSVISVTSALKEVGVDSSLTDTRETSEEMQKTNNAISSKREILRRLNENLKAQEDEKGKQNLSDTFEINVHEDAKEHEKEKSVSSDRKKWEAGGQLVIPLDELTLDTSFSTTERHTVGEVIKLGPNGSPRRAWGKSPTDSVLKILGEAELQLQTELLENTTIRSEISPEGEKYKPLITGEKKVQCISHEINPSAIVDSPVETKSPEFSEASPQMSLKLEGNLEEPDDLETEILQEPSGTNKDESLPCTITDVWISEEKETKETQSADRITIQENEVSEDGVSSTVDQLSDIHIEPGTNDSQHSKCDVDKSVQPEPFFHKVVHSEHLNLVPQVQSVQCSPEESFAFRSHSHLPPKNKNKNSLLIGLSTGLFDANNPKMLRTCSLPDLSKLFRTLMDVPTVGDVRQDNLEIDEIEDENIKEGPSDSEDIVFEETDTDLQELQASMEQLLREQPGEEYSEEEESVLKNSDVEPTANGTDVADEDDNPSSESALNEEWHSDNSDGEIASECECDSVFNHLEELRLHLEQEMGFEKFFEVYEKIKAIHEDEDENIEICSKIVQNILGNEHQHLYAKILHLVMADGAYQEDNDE

[5] = target: Ribosomal protein S6 kinase alpha-2 (Homo sapiens) (UniProt Q15349); assay: Selectivity interaction (KinomeScan (DiscoverX)) EUB0000666a RPS6KA2; conditions: at 10 µM
Sequence of Ribosomal protein S6 kinase alpha-2 (Homo sapiens) (Q15349 whole entry): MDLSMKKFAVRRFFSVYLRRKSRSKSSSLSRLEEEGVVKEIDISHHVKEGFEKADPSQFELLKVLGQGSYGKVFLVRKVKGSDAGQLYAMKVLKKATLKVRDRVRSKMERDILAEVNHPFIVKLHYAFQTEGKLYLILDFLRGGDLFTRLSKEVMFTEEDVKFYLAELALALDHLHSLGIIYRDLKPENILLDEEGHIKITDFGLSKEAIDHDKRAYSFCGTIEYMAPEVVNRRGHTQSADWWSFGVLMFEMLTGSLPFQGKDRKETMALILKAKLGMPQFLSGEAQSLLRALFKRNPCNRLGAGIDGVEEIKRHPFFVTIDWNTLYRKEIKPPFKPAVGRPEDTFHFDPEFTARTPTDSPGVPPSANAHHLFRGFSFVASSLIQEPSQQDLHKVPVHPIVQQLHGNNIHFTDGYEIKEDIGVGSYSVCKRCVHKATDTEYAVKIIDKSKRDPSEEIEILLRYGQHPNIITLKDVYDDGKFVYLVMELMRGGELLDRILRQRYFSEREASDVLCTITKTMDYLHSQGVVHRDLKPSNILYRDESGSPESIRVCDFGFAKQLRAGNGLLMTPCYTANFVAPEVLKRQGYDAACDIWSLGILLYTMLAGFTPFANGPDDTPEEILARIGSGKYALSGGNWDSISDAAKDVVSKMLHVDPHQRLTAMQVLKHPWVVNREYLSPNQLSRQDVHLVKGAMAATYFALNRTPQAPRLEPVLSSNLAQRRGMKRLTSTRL

Sequence of Homeodomain-interacting protein kinase 1 (Q86Z02 whole entry, looked up): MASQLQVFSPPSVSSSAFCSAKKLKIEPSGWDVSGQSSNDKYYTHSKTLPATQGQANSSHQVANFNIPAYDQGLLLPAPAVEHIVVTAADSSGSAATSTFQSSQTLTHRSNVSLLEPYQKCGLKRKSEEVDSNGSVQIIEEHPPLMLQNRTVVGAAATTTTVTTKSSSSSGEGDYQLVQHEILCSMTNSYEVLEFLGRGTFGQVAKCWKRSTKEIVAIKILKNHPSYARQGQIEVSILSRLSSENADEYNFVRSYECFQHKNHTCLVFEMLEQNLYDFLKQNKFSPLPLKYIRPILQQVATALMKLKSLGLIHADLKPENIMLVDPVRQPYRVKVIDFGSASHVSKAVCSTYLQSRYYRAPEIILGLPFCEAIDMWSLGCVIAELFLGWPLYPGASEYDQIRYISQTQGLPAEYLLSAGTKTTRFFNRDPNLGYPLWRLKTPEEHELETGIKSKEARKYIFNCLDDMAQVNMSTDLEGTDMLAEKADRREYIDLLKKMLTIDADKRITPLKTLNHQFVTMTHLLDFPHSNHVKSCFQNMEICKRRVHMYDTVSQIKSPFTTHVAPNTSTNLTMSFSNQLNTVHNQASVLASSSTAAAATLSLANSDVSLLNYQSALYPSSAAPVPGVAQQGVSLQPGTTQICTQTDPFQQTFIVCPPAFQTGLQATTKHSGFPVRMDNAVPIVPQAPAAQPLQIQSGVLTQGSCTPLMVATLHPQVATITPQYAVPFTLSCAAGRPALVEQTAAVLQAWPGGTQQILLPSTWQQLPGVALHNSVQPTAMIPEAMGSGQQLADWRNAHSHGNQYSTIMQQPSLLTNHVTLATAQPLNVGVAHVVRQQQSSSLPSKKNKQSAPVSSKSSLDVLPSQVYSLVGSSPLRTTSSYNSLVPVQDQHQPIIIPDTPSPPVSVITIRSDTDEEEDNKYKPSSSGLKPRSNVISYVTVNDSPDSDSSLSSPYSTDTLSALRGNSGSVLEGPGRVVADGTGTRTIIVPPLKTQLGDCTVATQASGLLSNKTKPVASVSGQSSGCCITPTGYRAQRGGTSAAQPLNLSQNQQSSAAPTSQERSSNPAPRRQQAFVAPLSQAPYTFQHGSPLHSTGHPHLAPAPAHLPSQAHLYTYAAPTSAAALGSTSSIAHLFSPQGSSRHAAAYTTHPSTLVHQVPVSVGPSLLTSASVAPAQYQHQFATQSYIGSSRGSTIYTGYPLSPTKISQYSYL
Sequence of Calcium/calmodulin-dependent protein kinase type II subunit alpha (Q9UQM7 whole entry): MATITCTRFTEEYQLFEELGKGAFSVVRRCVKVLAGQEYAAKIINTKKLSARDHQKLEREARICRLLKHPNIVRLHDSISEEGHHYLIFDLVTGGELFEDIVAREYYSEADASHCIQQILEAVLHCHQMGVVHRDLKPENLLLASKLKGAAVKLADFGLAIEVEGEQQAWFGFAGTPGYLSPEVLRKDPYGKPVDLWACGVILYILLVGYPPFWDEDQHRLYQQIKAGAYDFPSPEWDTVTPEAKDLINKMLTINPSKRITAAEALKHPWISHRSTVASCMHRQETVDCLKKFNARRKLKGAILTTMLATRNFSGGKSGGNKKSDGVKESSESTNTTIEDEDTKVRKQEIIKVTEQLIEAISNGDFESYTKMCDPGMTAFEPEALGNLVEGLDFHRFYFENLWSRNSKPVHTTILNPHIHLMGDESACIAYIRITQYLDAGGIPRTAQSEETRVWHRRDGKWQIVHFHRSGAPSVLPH

`O[C@H]1CC[C@H](Nc2ncc3nc(Nc4c(F)cc(F)cc4F)n([C@H]4CCOC4)c3n2)CC1` was tested, and the % of control [1] was 95% and the % of control [2] was 6.5%.
`COCC(=O)NC/C=C/c1ccc2ncnc(Nc3ccc(Oc4ccc(C)nc4)c(C)c3)c2c1` [CP-724714] was tested, and the % of control [3] was 88%.
In the case of `C=CC(=O)Nc1ccc(C(=O)Nc2[nH]nc3c2CN(C(=O)N[C@H](CN(C)C)c2ccccc2)C3(C)C)cc1`, the % of engagement [4] is reported as -2.5%.
`O=C(NOC[C@H](O)CO)c1ccc(F)c(F)c1Nc1ccc(I)cc1F` was tested, and the % of control [5] was 92%.
